Measurements reported in patent US20090221523A1 (priority 2005, published 2009).
In brackets after ≈: the same amount, converted by molar mass. Like-named read-outs stand apart in the source and are kept apart here.

Key:
HSV-1 strain F = test: microbe, parasite or virus in culture; assay type: cell-based, herpes simplex virus; settings: Human alphaherpesvirus 1, HFF
HSV-1 TK− strain DM2.1 = test: microbe, parasite or virus in culture; assay type: cell-based, herpes simplex virus; settings: Human alphaherpesvirus 1, HFF
[1] = test system: CV strain delta crmA (TK+); test: microbe, parasite or virus in culture; assay type: cell-based; settings: Cowpox virus, Vero, read-out: CV delta crmA EC50 (TK+)
[2] = test system: CV strain TK:GFP lacZ (TK−); test: microbe, parasite or virus in culture; assay type: cell-based; settings: Cowpox virus, Vero, read-out: CV TK:GFP lacZ EC50 (TK−)
in vitro = settings: human
[3] = test system: Cc1cn([C@H]2C[C@H](O)[C@@H](CO)O2)c(=O)[nH]c1=O; test: purified protein, by the assay type
HSV-1 strain E377 = test system: HSV-1 strain E377; set-up: species or system BALB/c mice; settings: mouse, in vivo
[4] = read-out: HSV-1 DM2.1 EC50 (TK−)

Compound	EC50 (HSV-1 strain F; read-out: HSV-1 F EC50 (TK+)) [µg/mL]	EC50 (HSV-1 TK− strain DM2.1; [4]) [µg/mL]	EC50 [1] [µg/mL]	EC50 [2] [µg/mL]	CC50 (in vitro) [µg/mL]	Km [3] [µM]	Vmax [3] [µM/min/mg]	EC50 (HSV-1 strain F; read-out: EC50 HSV-1 (F) TK+) [µg/mL]	EC50 (HSV-1 TK− strain DM2.1; read-out: EC50 HSV-1 (DM2.1) TK−) [µg/mL]	Mortality % (HSV-1 strain E377) [%]	Mortality No. dead/total no. (HSV-1 strain E377)
O=c1[nH]c(=O)n([C@H]2C[C@H](O)[C@@H](CO)O2)cc1F [FdU, 5-fluorodeoxyuridine]	2.5 ± 1.7 (≈ 10.2 µM)	4.5 ± 3.3 (≈ 18.3 µM)	0.37 (≈ 1.5 µM)	0.37 (≈ 1.5 µM)	60 ± 0.7 (≈ 244 µM)						
purified VV TK (Vaccinia virus Copenhagen)						49 ± 7.6	289				
Nc1ncnc2c1ncn2[C@@H]1O[C@H](CO)[C@@H](O)[C@@H]1O [AraA, vidarabine]	6.4 ± 3.4 (≈ 23.9 µM)	4.9 (≈ 18.3 µM)	0.91 ± 0.005 (≈ 3.41 µM)	0.78 ± 0.2 (≈ 2.92 µM)	> 100						
O=c1[nH]c(=O)n([C@@H]2O[C@H](CO)[C@@H](O)[C@@H]2O)cc1/C=C/Br [BVAU, sorivudine]	0.05 ± 0.02 (≈ 0.143 µM)	> 100	> 30	> 30	> 100						
O=c1[nH]c(=O)n([C@H]2C[C@H](O)[C@@H](CO)O2)cc1Br [BrdU, 5-bromodeoxyuridine]	1.6 ± 0.2 (≈ 5.21 µM)	39 ± 6.3 (≈ 127 µM)	0.37 (≈ 1.2 µM)	19 (≈ 61.9 µM)	> 100						
O=c1[nH]c(=O)n([C@@H]2O[C@H](CO)[C@@H](O)[C@@H]2F)cc1I [FIAU, fialuridine]	0.05 ± 0.03 (≈ 0.134 µM)	3.9 ± 3.3 (≈ 10.5 µM)	14 ± 7 (≈ 37.6 µM)	19 ± 6.7 (≈ 51.1 µM)	> 100						
Nc1nc2c(ncn2COCCO)c(=O)[nH]1 [ACV, acyclovir]	0.35 ± 0.2 (≈ 1.55 µM)	> 100	> 30	> 30	> 100			0.3 (≈ 1.33 µM)	> 100	0	0/15
